Measured values as given in US4313943A, “7-Chloro-2,3-dihydro-5-phenyl-1-propargyl-1H-1,4-benzodiazepine-2-one, and a pharmaceutical composition thereof” (priority 1972, dated 1982).
Several values for one entry are separate records, joined by “and”; a condition that tells them apart may be missing. Equal values may be shown once. Entries after “also recorded” stand apart in the source; their conditions may differ.

Key:
[1] = Acute toxicity in the mouse (oral); conditions: in vivo, mouse (male)
Procedure: (§1) The test compounds shown in Table 2 were administered orally to male mice and rats in the form of a suspension in a 1% solution of sodium carboxymethyl cellulose. The LD50 (lethal dose 50%) was calculated by the method of Litchfield and Wilcoxon.

[2] = Anti-convulsant activity in the mouse (convulsions induced by 1,5-pentamethylenetetrazole); type: in vivo; conditions: 30 min before pentamethylenetetrazole s.c.
Procedure: The inhibition of convulsions induced by 1,5-pentamethylenetetrazole was tested by the Clen method. The test compounds were administered orally to the mice, in the doses shown in Table 3, in the form of suspensions in 1% sodium carboxymethyl cellulose solution, and 30 minutes later the test animals were injected subcutaneously with […] of 1,5-pentamethylenetetrazole. The number of mice protected from lethal extensorial tonic spasms, per group of 10 test animals, was recorded.

[3] = Acute toxicity in the rat (oral); conditions: in vivo
Procedure: as §1

[4] = Myorelaxant activity in the mouse (traction test); type: in vivo
Procedure: This was determined by the traction test of Joulon Courvoisier, following Boissier and Simon, in which the mouse is suspended by its front paws to a horizontal metal wire, and the animal's capacity to get up with its hind paws is observed. The test compounds were administered orally to the animals, in the doses shown in Table 5, as suspensions in 1% sodium carboxymethyl cellulose solution; and the animals were tested 30 minutes and 180 minutes after administration. The test animals were deemed to be myorelaxant if unable to get up within 5 seconds.

[5] = Potentiation of narcosis (hexobarbitone sodium) in the mouse, Winter method; type: in vivo; conditions: hexobarbitone sodium 80 mg/kg i.p., control 33.3
Procedure: The Winter method was used, in which a state of narcosis is induced by the intraperitoneal administration of 80 mg/kg of hexobarbitone sodium, and is assessed by the loss of the righting reflex in the test animal. […] orally to the animals, in doses shown in Table 4, as suspensions in 1% sodium carboxymethyl cellulose solution; and the prolongation of narcosis in the animals thus treated was observed, by comparison with controls which received only the hexobarbitone administration.

[6] = test system: posterior amygdaloid complex; test: Amygdaloid after-discharge (stimulation of posterior amygdaloid complex); type: in vivo; conditions: 7.5 mg/kg intragastric; for Duration of Amygdaloid After-Discharge: individual animals
Procedure: The test animals for this study were also prepared according to the technique described by Monnier and Gangloff (infra B, page 30) and the animals were kept in restraint cages in a relatively soundproof room.
The activity of test compounds 1 and 4 was assessed in identical groups of test animals for each compound, with identical numbers of animals for hippocampal after-discharges and for amygdaloid after-discharges. A dose of 7.5 mg/kg of each test compound was adminstered by the intragastric route. In each animal, after-discharges were triggered every 45 minutes after the administration of a test compound.
The stimulation consisted of a series of waves with a duration of 3 m sec., delivered at a frequency of 40 c/sec., with 5 seconds as the total duration of the stimulation. The shocks were delivered by a Neurovar neurostimulator (Alvar Electronic), coupled to a CRC cathode oscilloscope (type OC 343). Cerebral electric activity was recorded by REEGA MINI HUIT electroencephalograph (Alvar Electronic).

[7] = Hypnotic activity comparison (Janssen 1959); type: in vivo
Procedure: Toxicity in test animals to the test compounds in terms of LD50 after oral and intraperitoneal administration was determined according to the procedure of Litchfield and Wilcoxan (1949) and the hypnotic effect on test animals was determined in accordance with the method of Janssen (1959).

[8] = Motor coordination in the rat (Rota-rod method, Dunham and Miya); type: in vivo
Procedure: The method of Dunham and Miya was used, which consists in placing the test animal on a rod rotating at 14 r.p.m., and recording the percentage of animals which fall off within 2 minutes. The test compound 1 was administered orally to the animals, in the various doses shown in Table 1, as a suspension in 1% sodium carboxymethyl cellulose solution. The animals were then tested 30 minutes and 60 minutes after the administration of the test compound.

[9] = Spontaneous mobility (Svenson and Thieme); type: in vivo; conditions: for ED50: po, read-out: oral ED50 (depressing spontaneous mobility)
Procedure: Spontaneous mobility in test animals was determined by the Svenson and Thieme procedure as published in Psychopharmacologia, Vol. 14, 1969, pages 157 et seq.

[10] = Cortical and hippocampal arousal thresholds on stimulation of MRF, median thalamus and posterior hypothalamus; type: in vivo; conditions: 7.5 mg/kg intragastric
Procedure: The test animals in this study were prepared by the techniques described by Monnier and Gangloff under the preceding study (infra B, page 30). Stimulation consisted of a series of waves delivered at a frequency of 200 c/sec., lasting 0.3 m sec., with a total duration of the stimulus being 5 sec. These shocks were delivered by a Neurovar neurostimulator (Alvar Electronic) coupled with a CRC cathode oscilloscope (type OC 343). Cerebral electrical activity was recorded on a REEGA MINI HUIT electroencephalograph (Alvar Electronic). The test animals were kept in restraint cages in a relatively soundproof room.
The activity of compounds 1 and 4 was tested in a series of six test animals for each compound, with a single dose of 7.5 mg/kg administered by the intragastric route. In each animal, the arousal threshold was determined for two of the three structures tested so that for each compound, each of the three structures stimulated were tested four times.
In making the baseline tracing, the threshold voltage was determined by a finding that the duration of the arousal reaction produced by the 5-second stimulation exceeded the duration of the stimulation by at least 5 seconds, that is, for a minimum of 10 seconds.
The various thresholds were determined every 45 minutes after administration of the compounds, for a total period of four and one-half hours.
The critical value for raising of a threshold was fixed at 0.1 volts. This constituted the maximum variation recorded during 41/2 hours in the control animals.
The results were taken in two forms and then summarized. In the first result, each animal was observed, yielding the values for the thresholds recorded at each time interval as well as the ratios of the values obtained in each of the stimulated structures.

[11] = Posterior hypothalamus stimulation

For C#CCN1C(=O)CN=C(c2ccccc2)c2cc(Cl)ccc21 [Compound 1, 7-chloro-2,3-dihydro-5-phenyl-1-propargyl-1H-1,4-benzodiazepin-2-one], the LD50 [1] was 1300 mg/kg, the “No. of Animals Protected” value ([2]; 0.5 mg/kg oral) was 0/10 and the “No. of Animals Protected” value ([2]; 1.0 mg/kg oral) was 5/10. For the same molecule, the “No. of Animals Protected” value ([2]; 2.0 mg/kg oral) was 9/10, the LD50 [3] was 6490 mg/kg and the “Percentage of myorelaxant animals” value ([4]; 1.5 mg/kg oral, after 30 minutes) was 20%. For the same molecule, the “Percentage of myorelaxant animals” value ([4]; 1.5 mg/kg oral, after 180 minutes) was 15%, the “Percentage of myorelaxant animals” value ([4]; 3.0 mg/kg oral, after 30 minutes) was 60% and the “Percentage of myorelaxant animals” value ([4]; 3.0 mg/kg oral, after 180 minutes) was 55%. For the same molecule, the “Percentage of myorelaxant animals” value ([4]; 6.0 mg/kg oral, after 30 minutes) was 80%, the “Percentage of myorelaxant animals” value ([4]; 6.0 mg/kg oral, after 180 minutes) was 70% and the Duration of narcosis ([5]; 1.0 mg/kg oral) was 70.7 min. The Duration of narcosis ([5]; 2.0 mg/kg oral) was 111.3 min, the “effect on amygdaloid after-discharge” value [6] was “lasting inhibitory effect; also recorded: slightly more pronounced” and the “Duration of Amygdaloid After-Discharge” value ([6]; 45 Mins.) was 15 s and 0 s and 35 s and 22 s. For the same molecule, the “Duration of Amygdaloid After-Discharge” value ([6]; 90 Mins.) was 17 s and 0 s and 27 s, the “Duration of Amygdaloid After-Discharge” value ([6]; 135 Mins.) was 46 s and 0 s and 37 s and the “Duration of Amygdaloid After-Discharge” value ([6]; 180 Mins.) was 17 s and 0 s and 34 s. For the same molecule, the “Duration of Amygdaloid After-Discharge” value ([6]; 225 Mins.) was 42 s and 46 s and 0 s and 35 s, the “Duration of Amygdaloid After-Discharge” value ([6]; 270 Mins.) was 45 s and 62 s and 0 s and 30 s and the ED50 ([7]; Table 11, species not given) was 857 mg/kg. For the same molecule, the “hypnotic activity compared with Compounds 3 or 4” value ([7]; in vivo) was “lower hypnotic activity”, the “Percentage of animals falling within 2 minutes” value ([8]; 3 mg/kg oral, 30 minutes after administration) was 0% and the “Percentage of animals falling within 2 minutes” value ([8]; 3 mg/kg oral, 60 minutes after administration) was 0%. The “Percentage of animals falling within 2 minutes” value ([8]; 6 mg/kg oral, 30 minutes after administration) was 50%, the “Percentage of animals falling within 2 minutes” value ([8]; 6 mg/kg oral, 60 minutes after administration) was 17% and the “Percentage of animals falling within 2 minutes” value ([8]; 12 mg/kg oral, 30 minutes after administration) was 100%. The “Percentage of animals falling within 2 minutes” value ([8]; 12 mg/kg oral, 60 minutes after administration) was 50%, the “activity in depressing spontaneous mobility compared with Compound 4” value ([9]; in vivo) was “approximately three times less active than Compound 4” and the ED50 [9] was 76.6 mg/kg. For the same molecule, the “effect on arousal pathways (in words)” value [10] was “preferentially reduces the excitability of the hypothalamo-cortical and hippocampal pathways; also recorded: moderately reduced in duration”, the “% of Mean Variation of arousal threshold, Cortex” value (shortened to “% of Mean Variation … Cortex”) ([10]; MRF stimulation) was “+57%” and the “% of Mean Variation of arousal threshold, Hippocampus” value (shortened to “% of Mean Variation … Hippocampus”) ([10]; MRF stimulation) was “+50%”. The “% of Mean Variation … Cortex” value ([10]; Median Thalamus stimulation) was “+67%”, the “% of Mean Variation … Hippocampus” value ([10]; Median Thalamus stimulation) was “+73%” and the “% of Mean Variation … Cortex” value ([10]; Posterior Hippocampus) was “+83%”. For the same molecule, the “% of Mean Variation … Hippocampus” value [10, 11] was “+78%”.
In the case of C#CCN1C(=O)CN=C(c2ccccc2Cl)c2cc(Cl)ccc21 [Compound 4, 7-chloro-2,3-dihydro-5-(2-chlorophenyl)-1-propargyl-1,H-1,4-benzodiazepine-2-one], the “effect on amygdaloid after-discharge” value [6] is reported as “lasting inhibitory effect”, the “Duration of Amygdaloid After-Discharge” value ([6]; 45 Mins.) is reported as 29 s and 43 s and 30 s and 35 s and the “Duration of Amygdaloid After-Discharge” value ([6]; 90 Mins.) is reported as 32 s and 46 s and 33 s and 40 s and 16 s. For the same molecule, the “Duration of Amygdaloid After-Discharge” value ([6]; 135 Mins.) was 35 s and 27 s and 40 s and 26 s, the “Duration of Amygdaloid After-Discharge” value ([6]; 180 Mins.) was 33 s and 29 s and 48 s and the “Duration of Amygdaloid After-Discharge” value ([6]; 225 Mins.) was 37 s and 35 s and 34 s and 41 s. For the same molecule, the “Duration of Amygdaloid After-Discharge” value ([6]; 270 Mins.) was 38 s and 42 s and 37 s and 39 s and 50 s, the ED50 [9] was 20.1 mg/kg and the “effect on arousal pathways (in words)” value [10] was “substantially raised the cortical and hippocampal arousal thresholds following stimulation of the reticular formation of the brain stem; also recorded: posterior hypothalamus appeared to be little affected; also recorded: moderately reduced in duration”. For the same molecule, the “% of Mean Variation … Cortex” value ([10]; MRF stimulation) was “+311%”, the “% of Mean Variation … Hippocampus” value ([10]; MRF stimulation) was “+308%” and the “% of Mean Variation … Cortex” value ([10]; Median Thalamus stimulation) was “+67%”. The “% of Mean Variation … Hippocampus” value ([10]; Median Thalamus stimulation) was “+67%”, the “% of Mean Variation … Cortex” value ([10]; Posterior Hippocampus) was “+56%” and the “% of Mean Variation … Hippocampus” value [10, 11] was “+60%”.
